These results are taken from patent US20210188839A1, “COMPOUNDS AND THEIR METHODS OF USE” (Praxis Precision Medicines, Inc., priority 2016, published 2021).

As a reminder, the inhibition is the share of the control response that was lost under treatment.

Bounds are passed on as bounds.

T1 sequence (Q9UQD0 whole entry): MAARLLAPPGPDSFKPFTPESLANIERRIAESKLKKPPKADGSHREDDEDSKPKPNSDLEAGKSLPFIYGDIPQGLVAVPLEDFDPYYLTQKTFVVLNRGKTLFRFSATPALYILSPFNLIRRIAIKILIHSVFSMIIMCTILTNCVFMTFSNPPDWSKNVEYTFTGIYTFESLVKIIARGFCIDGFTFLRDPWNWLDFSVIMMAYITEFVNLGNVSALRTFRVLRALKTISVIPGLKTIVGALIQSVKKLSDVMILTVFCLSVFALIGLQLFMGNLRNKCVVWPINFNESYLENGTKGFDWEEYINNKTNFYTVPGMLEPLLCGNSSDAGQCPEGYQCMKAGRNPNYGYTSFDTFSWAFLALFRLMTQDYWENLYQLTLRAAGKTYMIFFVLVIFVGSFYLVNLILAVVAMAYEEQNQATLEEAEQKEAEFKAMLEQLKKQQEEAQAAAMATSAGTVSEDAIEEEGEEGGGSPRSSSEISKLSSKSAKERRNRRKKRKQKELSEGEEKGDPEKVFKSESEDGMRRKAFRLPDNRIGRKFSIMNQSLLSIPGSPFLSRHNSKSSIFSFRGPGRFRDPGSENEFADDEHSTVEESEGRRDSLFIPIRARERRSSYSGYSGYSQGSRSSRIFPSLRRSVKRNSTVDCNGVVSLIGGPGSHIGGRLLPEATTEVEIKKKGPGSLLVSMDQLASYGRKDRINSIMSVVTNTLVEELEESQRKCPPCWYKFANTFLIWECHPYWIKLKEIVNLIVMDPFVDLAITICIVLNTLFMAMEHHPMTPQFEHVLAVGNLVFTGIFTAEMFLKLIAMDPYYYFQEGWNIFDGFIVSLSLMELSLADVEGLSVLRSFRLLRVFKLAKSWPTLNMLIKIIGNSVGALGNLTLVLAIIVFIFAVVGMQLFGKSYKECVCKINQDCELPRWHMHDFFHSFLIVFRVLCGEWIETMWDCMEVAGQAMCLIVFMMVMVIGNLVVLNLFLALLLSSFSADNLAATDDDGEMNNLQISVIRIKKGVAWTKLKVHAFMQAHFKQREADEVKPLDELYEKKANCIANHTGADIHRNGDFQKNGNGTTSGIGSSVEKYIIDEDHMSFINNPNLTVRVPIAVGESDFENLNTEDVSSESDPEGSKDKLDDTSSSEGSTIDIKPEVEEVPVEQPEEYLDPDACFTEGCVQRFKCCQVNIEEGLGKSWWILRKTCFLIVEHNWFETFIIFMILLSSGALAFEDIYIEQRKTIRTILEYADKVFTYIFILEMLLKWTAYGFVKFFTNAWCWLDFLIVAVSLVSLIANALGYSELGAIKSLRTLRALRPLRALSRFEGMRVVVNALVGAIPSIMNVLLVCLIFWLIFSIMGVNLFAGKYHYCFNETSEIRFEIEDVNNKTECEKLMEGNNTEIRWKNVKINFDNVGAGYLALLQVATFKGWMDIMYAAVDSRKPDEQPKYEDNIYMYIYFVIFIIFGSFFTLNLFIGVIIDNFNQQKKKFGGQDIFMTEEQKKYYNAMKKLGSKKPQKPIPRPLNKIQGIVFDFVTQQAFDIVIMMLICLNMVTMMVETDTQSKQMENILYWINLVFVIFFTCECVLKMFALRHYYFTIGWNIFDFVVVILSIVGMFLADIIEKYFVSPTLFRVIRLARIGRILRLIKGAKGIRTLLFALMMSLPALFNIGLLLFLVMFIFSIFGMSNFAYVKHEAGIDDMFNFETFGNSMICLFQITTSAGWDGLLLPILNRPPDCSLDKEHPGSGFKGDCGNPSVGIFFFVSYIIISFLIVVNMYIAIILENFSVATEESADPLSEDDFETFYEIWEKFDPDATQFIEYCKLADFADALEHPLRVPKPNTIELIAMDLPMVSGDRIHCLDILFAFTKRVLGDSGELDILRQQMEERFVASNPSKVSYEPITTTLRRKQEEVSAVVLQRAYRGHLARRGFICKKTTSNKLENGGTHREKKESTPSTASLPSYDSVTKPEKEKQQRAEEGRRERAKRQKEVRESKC

This assay has as its target T1, human Nav1.6 (hNav1.6) (Homo sapiens, UniProt Q9UQD0).
T1 construct: expressed in transfected cells; host or cells: HEK-293
The assay can be described thus: Modulation of late sodium current (INaL), PatchXpress high throughput electrophysiology. It is filed as cell-based. To be noted: HEK293; 1 μM compound; HEK-293 cells expressing recombinant hNav1.6; late current evoked by 300 nM ATX-II. The protocol: Functional characterization of exemplary compounds to modulate INaL expressed by the Nav1.6 voltage-gated sodium channel was accomplished using the PatchXpress' high throughput electrophysiology platform (Molecular Devices, Sunnyvale, Calif.). HEK-293 cells expressing recombinant, human Nav1.6 (hNav1.6) were grown in DMEM/high-glucose Dulbecco's modified, 10% FBS, 2 mM sodium pyruvate, 10 mM HEPES and 400 μg/mL G418. Cells were grown to 50%-80% confluency prior to harvesting. […] The onboard liquid handling facility of the PatchXpress was used for dispensing cells and applying test compounds. Nav late currents were evoked by the application of 300 nM ATX-II. […] INaL amplitude and stability were determined by analyzing the mean current amplitude over the final 20 ms of thetest pulse. […] Percent steady-state inhibition of INaL was calculated as: [(INaL_compound)/(INaL_control)]*100, where INaL_compound and INaL_control represent INaL recorded in the presence or absence of compound, respectively.
As for `Cc1cc(OC(F)(F)F)ccc1-c1cc2ccnn2cn1` [Compound 22, 5-[2-methyl-4-(trifluoromethoxy)phenyl]pyrazolo[1,5-c]pyrimidine], the inhibition at 1 µM is less than 50%.
As for `N#CC1(c2ccc(-c3ccn4ncc(C(F)(F)F)c4c3)cc2)CC1` [Compound 43, 1-[4-[3-(trifluoromethyl)pyrazolo[1,5-a]pyridin-5-yl]phenyl]cyclopropanecarbonitrile], the inhibition at 1 µM is less than 50%.
In the case of `COC(C)(C)c1ccc(-c2ccn3ncc(C(F)(F)F)c3c2)cc1` [Compound 44, 5-[4-(1-methoxy-1-methyl-ethyl)phenyl]-3-(trifluoromethyl)pyrazolo[1,5-a]pyridine], the inhibition at 1 µM is less than 50%.
As to `FC(F)(F)Oc1ccc(-c2ccc3nccn3c2)cc1` [Compound 6], the inhibition at 1 µM is less than 50%.
`N#CC1(c2ccc(-c3ccc4ncc(C(F)(F)F)n4c3)cc2)CC1` [Compound 5]: the inhibition at 1 µM was less than 50%.
Take `COCc1cc(OC(F)(F)F)ccc1-c1cn2c(C(F)(F)F)cnc2cn1` [Compound 41, 6-[2-(methoxymethyl)-4-(trifluoromethoxy)phenyl]-3-(trifluoromethyl)imidazo[1,2-a]pyrazine]: the inhibition at 1 µM is more than 50%.
As for `FC(F)(F)Oc1ccc(-c2ccc3ncc(C(F)(F)F)n3n2)cc1` [Compound 19], the inhibition at 1 µM is less than 50%.
Take `FC(F)(F)c1ccc(-c2cn3c(C(F)(F)F)cnc3cn2)cc1` [Compound 34, 3-(trifluoromethyl)-6-[4-(trifluoromethyl)phenyl]imidazo[1,2-a]pyrazine]: the inhibition at 1 µM was more than 50%.
For the compound `Cc1cc(OC(F)(F)F)ccc1-c1cnn2ncc(C(=O)N(C)C)c2c1` [Compound 50, N,N-dimethyl-5-[2-methyl-4-(trifluoromethoxy)phenyl]pyrazolo [1,5-b]pyridazine-3-carboxamide], the inhibition at 1 µM was less than 50%.
As to `COc1cc(OC(F)(F)F)ccc1-c1ccn2ncc(C(F)(F)F)c2c1` [Compound 42, 5-[2-methoxy-4-(trifluoromethoxy)phenyl]-3-(trifluoromethyl)pyrazolo[1,5-a]pyridine], the inhibition at 1 µM is more than 50%.
Regarding `N#CC1(c2ccc(-c3cn4c(C(F)(F)F)cnc4cn3)cc2)CC1` [Compound 35, 1-[4-[3-(trifluoromethyl)imidazo[1,2-a]pyrazin-6-yl]phenyl]cyclopropanecarbonitrile], the inhibition at 1 µM is less than 50%.
On to `FC(F)(F)Oc1ccc(-c2cc3c(C(F)(F)C(F)(F)F)cnn3cn2)cc1` [Compound 25b, 3-(1,1,2,2,2-pentafluoroethyl)-5-[4-(trifluoromethoxy)phenyl]pyrazolo[1,5-c]pyrimidine], for which the inhibition at 1 µM was more than 50%.
In the case of `Cc1cc(OC(F)(F)F)ccc1-c1cc2c(C(F)(F)F)cnn2cn1` [Compound 23, 5-[2-methyl-4-(trifluoromethoxy)phenyl]-3-(trifluoromethyl)pyrazolo[1,5-c]pyrimidine], the inhibition at 1 µM was less than 50%.
`FC(F)(F)Oc1ccc(-c2ccc3nccn3n2)cc1` [Compound 18]: the inhibition at 1 µM is less than 50%.
With `FC(F)(F)Oc1ccc(-c2cn3c(C(F)(F)F)cnc3cn2)cc1` [Compound 21], the inhibition at 1 µM is more than 50%.
Then `FC(F)(F)Oc1ccc(-c2cc3c(C(F)(F)F)cnn3cn2)cc1` [Compound 25a, 5-[4-(trifluoromethoxy)phenyl]-3-(trifluoromethyl)pyrazolo[1,5-c]pyrimidine], with more than 50%; and `FC(F)(F)COc1ccc(-c2ccc3ncc(C(F)(F)F)n3c2)cn1` [Compound 3], with more than 50%.
Take `COC(C)(C)c1ccc(-c2ccc3ncc(C(F)(F)F)n3c2)cc1` [Compound 4]: the inhibition at 1 µM is more than 50%.
On to `COc1cc(OC(F)(F)F)ccc1-c1ccn2nccc2c1` [Compound 14, 5-[2-methoxy-4-(trifluoromethoxy)phenyl]pyrazolo[1,5-a]pyridine], for which the inhibition at 1 µM is more than 50%.
As to `FC(F)(F)Oc1ccc(-c2cnc3nccn3c2)cc1` [Compound 16], the inhibition at 1 µM was less than 50%.
As for `FC(F)(F)Oc1ccc(-c2cnn3ncc(C(F)(F)F)c3c2)cc1` [Compound 29, 5-[4-(trifluoromethoxy)phenyl]-3-(trifluoromethyl)pyrazolo[1,5-b]pyridazine], the inhibition at 1 µM is more than 50%.
With `Cc1cc(OC(F)(F)F)ccc1-c1cnn2ncc(C(F)(F)F)c2c1` [Compound 27, 5-[2-methyl-4-(trifluoromethoxy)phenyl]-3-(trifluoromethyl)pyrazolo[1,5-b]pyridazine], the inhibition at 1 µM was less than 50%.
Then `Cc1cn2cc(-c3ccc(OC(F)(F)F)cc3)cnc2n1` [Compound 32, 2-methyl-6-[4-(trifluoromethoxy)phenyl]imidazo[1,2-a]pyrimidine], with less than 50%; and `FC(F)(F)Oc1ccc(-c2cnc3ncc(C(F)(F)F)n3c2)cc1` [Compound 17], with less than 50%.
Under `COCc1cc(OC(F)(F)F)ccc1-c1cnc2ncc(C(F)(F)F)n2c1` [Compound 30, 6-[2-(methoxymethyl)-4-(trifluoromethoxy)phenyl]-3-(trifluoromethyl)imidazo[1,2-a]pyrimidine] stands less than 50%.
With `FC(F)(F)Oc1ccc(-c2cc3ccnn3cn2)cc1` [Compound 24, 5-[4-(trifluoromethoxy)phenyl]pyrazolo[1,5-c]pyrimidine], the inhibition at 1 µM is less than 50%.
Turning to `FC(F)(F)Oc1ccc(-c2cnn3nccc3c2)cc1` [Compound 28, 5-[4-(trifluoromethoxy)phenyl]pyrazolo[1,5-b]pyridazine], the inhibition at 1 µM was less than 50%.
Consider `FC(F)(F)COc1ccc(-c2ccn3ncc(C(F)(F)F)c3c2)cn1` [Compound 45, 5-[6-(2,2,2-trifluoroethoxy)-3-pyridyl]-3-(trifluoromethyl)pyrazolo[1,5-a]pyridine], for which the inhibition at 1 µM was more than 50%.
On to `FC(F)(F)Oc1ccc(-c2cn3ccnc3cn2)cc1` [Compound 20], for which the inhibition at 1 µM was less than 50%.
Then `Fc1cc(-c2cn3c(C(F)(F)F)cnc3cn2)cnc1OCC(F)(F)F` [Compound 36, 6-[5-fluoro-6-(2,2,2-trifluoroethoxy)-3-pyridyl]-3-(trifluoromethyl)imidazo[1,2-a]pyrazine], with more than 50%.
As for `COc1cc(OC(F)(F)F)ccc1-c1ccc2ncc(C(F)(F)F)n2c1` [Compound 2], the inhibition at 1 µM is more than 50%.
For the compound `Cc1cc(OC(F)(F)F)ccc1-c1cnn2nccc2c1` [Compound 26, 5-[2-methyl-4-(trifluoromethoxy)phenyl]pyrazolo[1,5-b]pyridazine], the inhibition at 1 µM is less than 50%.
Regarding `Cc1nc2ncc(-c3ccc(OC(F)(F)F)cc3)cn2c1C(F)(F)F` [Compound 33, 2-methyl-6-[4-(trifluoromethoxy)phenyl]-3-(trifluoromethyl)imidazo[1,2-a]pyrimidine], the inhibition at 1 µM was less than 50%.
Regarding `FC(F)(F)COc1ccc(-c2ccn3nccc3c2)cn1` [Compound 15, 5-[6-(2,2,2-trifluoroethoxy)-3-pyridyl]pyrazolo[1,5-a]pyridine], the inhibition at 1 µM was more than 50%.
As to `Cc1cc(OC(F)(F)F)ccc1-c1cnc2ncc(C(F)(F)F)n2c1` [Compound 31, 6-[2-methyl-4-(trifluoromethoxy)phenyl]-3-(trifluoromethyl)imidazo[1,2-a]pyrimidine], the inhibition at 1 µM is less than 50%.
